# Laboratory results: PMC2954226, “Structure of the γ-D-glutamyl-L-diamino acid endopeptidase YkfC from Bacillus cereus in complex with L-Ala-γ-D-Glu: insights into substrate recognition by NlpC/P60 cysteine peptidases” (Acta Crystallographica Section F: Structural Biology and …, 2010)
# Non-standard residues stand in square brackets, D forms with d. Residues, ends and D or L forms follow the SMILES beside them.
# Molecular target: T1, BcYkfC (Bacillus cereus, UniProt Q736M3)
# T1 construct: gene ykfC; signal peptide (residues 1-23) removed; N-terminal His tag cut by TEV leaving Gly0; selenomethionine protein from E. coli; SH3b1 (29-129), SH3b2 (130-207) and NlpC/P60 (208-333) domains; model 29-333; monomer
# T1 sequence (Q736M3 24-333): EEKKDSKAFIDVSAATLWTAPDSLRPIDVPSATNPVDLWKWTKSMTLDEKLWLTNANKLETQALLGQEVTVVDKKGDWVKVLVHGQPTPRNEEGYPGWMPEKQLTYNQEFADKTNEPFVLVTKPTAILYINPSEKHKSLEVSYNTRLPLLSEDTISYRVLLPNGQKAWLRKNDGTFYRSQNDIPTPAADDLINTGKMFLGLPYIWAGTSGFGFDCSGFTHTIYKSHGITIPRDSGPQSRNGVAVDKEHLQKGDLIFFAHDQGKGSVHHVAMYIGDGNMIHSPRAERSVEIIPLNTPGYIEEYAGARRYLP
# Test: X-ray crystal structure, […] Å (SeMet MAD)
# Assay type: binding
# Conditions: ligand co-purified, most likely from E. coli expression host; S2-S1 site; catalytic Cys238 oxidized (OCS), enzyme inactive in the crystal; crystallized at pH 4.2, 277 K
compound,measurement,value
C[C@H](N)C(=O)N[C@H](CCC(=O)O)C(=O)O [L-Ala-γ-D-Glu] (H-Ala-[dE]-OH),"X-ray crystal structure, 1.79 Å (SeMet MAD)",The dipeptide L-Ala-γ-D-Glu was identified from well defined electron density in the active site
